For data set [1], the system named is A549 cells. Kind of data set: Quantification of arachidonic acid (AA) release in A549 cells. It is filed as cell-based. The protocol:
Cell Culture: A549 lung adenocarcinoma cells (epithelial-derived) were grown in low glucose DMEM (Invitrogen) supplemented with L-glutamine, 10% (v/v) fetal bovine serum (Invitrogen), 200 U/ml of penicillin G sodium, and 200 μg/ml of streptomycin sulfate. Cells were maintained under 80% confluency and standard incubator conditions (humidified atmosphere, 95% air, 5% CO2, 370 C). For treatment, cells were incubated for 2 hours in low glucose DMEM (Invitrogen) supplemented with L-glutamine, 2% (v/v) fetal bovine serum (Invitrogen), 200 U/ml of penicillin G sodium, and 200 μg/ml of streptomycin sulfate prior to the addition of agonist.
Quantification of arachidonic acid (AA) release: A549 cells (5×10^4) were labeled overnight with 5 μCi/mL [^3H]-AA (5 nM) (NEN). Cells were washed and incubated in DMEM supplemented with 2% fetal bovine serum for 2 hours. Following treatment, media was transferred to 1.5 mL polypropylene tubes, centrifuged at 10,000×g, and ^3H-AA cpm determined by scintillation counting. Results were controlled for equivalent number of cells quantified by MTT assay as described (Chalfant, C. E., Rathman, K., Pinkerman, R. L., Wood, R. E., Obeid, L. M., Ogretmen, B., and Hannun, Y. A. (2002) J. Biol. Chem. 277, 12587-12595) and by verification of total AA labeling by scintillation counting. For the experiments in FIG. 4, purified SMase D was obtained from Dr. Alfred H. Merrill, Jr., and SMase C (purified from Bacillus cereus) was obtained commercially from Sigma.
RNAi design and transfections: Knock-downs of ceramide kinase were performed essentially as described using sequence specific siRNA reagents (http:www.mpibpc.gwdg.de/abteilungen/100/105/sirna.html) (Lassus, P., Opitz-Araya, X., and Lazebnik, Y. (2002) Science 297, 1352-1354) using human ceramide kinase RNAi starting 142 nucleotides from start codon ([…]dTd (SEQ ID NO: 3) and […]dTd (SEQ ID NO:4)). All sequences were evaluated against the database using the NIH blast program to test for specificity (Xeragon, A Qiagen Company). A549 cells (3×10^4) were transfected with the 21-nucleotide duplexes using OligofectAMINE (Invitrogen) as recommended by the manufacturer. Following the 4 hour transfection, cells were treated and assayed for AA release or PGE2 synthesis at 26 hours post-transfection.

In data set [2] the test system is L929 fibroblasts. As to the kind of experiment: PGE2 synthesis in L929 fibroblasts. The class given is cell-based. Conditions: L929 fibroblasts. The protocol:
FIGS. 3A-3B. FIG. 3A. The effects of ceramide-1-phosphate on TXB2 synthesis. A549 cells (1×10^5) were treated with D-e-C16 ceramide-1-phosphate (1 μM) solubilized in 2% dodecane/98% ethanol (final concentration in treatments was 0.002% dodecane/0.098% ethanol (EtOH)) for the indicated times. The results are presented as % control of TXB2 controlled for equivalent number of cells by MTT assay. Data are representative of 3 separate determinations on 2 separate occasions. FIG. 3B. The effects of ceramide-1-phosphate on AA release and PGE2 synthesis in L929 fibroblasts. L929 cells (5×10^4) were labeled overnight with 5 μCi/mL [^3H]-arachidonic acid (5 nM). Cells were washed and placed in DMEM supplemented with 2% fetal bovine serum for two hours. Cells were then treated with 2.5 μM D-e-C16 ceramide-1-phosphate (solubilized in 98% ethanol/2% dodecane) for the indicated times. […]
Quantification of prostaglandin E2 and thromboxane B2 synthesis: For measurement of PGE2 and TXB2 levels, aliquots of media were taken at indicated time points and assayed according to manufacturer's instructions using the prostaglandin E2 and thromboxane B2 monoclonal EIA Kit from Cayman Chemical. […] Results were controlled for equivalent number of cells quantified by MTT assay.

For orientation: IC50 means the midpoint of a concentration-inhibition curve. In the case of “ceramide kinase RNAi: 21-nucleotide duplex, human ceramide kinase RNAi starting 142 nucleotides from start codon (SEQ ID NO: 3 and 4) (chain 1 UGCCUGCUCUGUGCCUGUATT; chain 2 UACAGGCACAGAGCAGGCATT; chemistry not given here)”, the “inhibition of AA release in response to A23187” value in data set [1] (A23187 1 μg/mL, 26 hours post-transfection) amounted to 72%. Also, the “AA release in response to C-1-P treatment” value in data set [1] (C-1-P 2.5 μM for 5 hours) is given as “no effect”. For the same substance, in data set [1] (IL-1β 2.5 ng/mL for 4 hours, 26 hours post-transfection), the “inhibition of AA release in response to IL-1β” value is on record as 78%. The IC50 in data set [1] (IL-1β or A23187, read-out: IC50 of inhibition of agonist-induced AA release) is around 30 nM. Besides, the “inhibition of PGE2 synthesis in response to IL-1β” value in data set [2] is “over 60%”.

The values are drawn from patent publication US20060030537A1, “Ceramide kinase and uses thereof” (priority 2004, published 2006).
